Data as given in PubChem BioAssay AID2060610 (Molecular Pharmacology Branch, DTP, NCI, 2025).

Tested on: 616215-338-R-J1-PDC complex spheroids, viability % test/control
Assay: Anticancer human tumor 616215-338-R-J1-PDC patient-derived colon adenocarcinoma cell line growth inhibition [CLK]
Conditions: for IC50: curve of first compound; for viability, T/C: stronger effect = lower value
Outline: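 Patient-derived tumor cells grown as complex spheroids with HUVEC endothelial cells and mesenchymal stem cells, treated with drug combinations. Concentrations descend in half-log steps from near clinical Cmax, or from 10 microM if Cmax unknown.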

[1] = second compound 0.0316 µM, first compound 0.0316 µM
[2] = second compound 0.0316 µM, first compound 0.1 µM
[3] = second compound 0.0316 µM, first compound 0.316 µM
[4] = second compound 0.0316 µM, first compound 1 µM
[5] = second compound 0.0316 µM, first compound 3.16 µM
[6] = second compound 0.0316 µM, first compound 10 µM
[7] = second compound 0.1 µM, first compound 0.0316 µM
[8] = second compound 0.1 µM, first compound 0.1 µM
[9] = second compound 0.1 µM, first compound 0.316 µM
[10] = second compound 0.1 µM, first compound 1 µM
[11] = second compound 0.1 µM, first compound 3.16 µM
[12] = second compound 0.1 µM, first compound 10 µM
[13] = second compound 0.316 µM, first compound 0.0316 µM
[14] = second compound 0.316 µM, first compound 0.1 µM
[15] = second compound 0.316 µM, first compound 0.316 µM
[16] = second compound 0.316 µM, first compound 1 µM
[17] = second compound 0.316 µM, first compound 3.16 µM
[18] = second compound 0.316 µM, first compound 10 µM
[19] = second compound 1 µM, first compound 0.0316 µM
[20] = second compound 1 µM, first compound 0.1 µM
[21] = second compound 1 µM, first compound 0.316 µM
[22] = second compound 1 µM, first compound 1 µM
[23] = second compound 1 µM, first compound 3.16 µM
[24] = second compound 1 µM, first compound 10 µM
[25] = second compound 3.16 µM, first compound 0.0316 µM
[26] = second compound 3.16 µM, first compound 0.1 µM
[27] = second compound 3.16 µM, first compound 0.316 µM
[28] = second compound 3.16 µM, first compound 1 µM
[29] = second compound 3.16 µM, first compound 3.16 µM
[30] = second compound 3.16 µM, first compound 10 µM
[31] = second compound 10 µM, first compound 0.0316 µM
[32] = second compound 10 µM, first compound 0.1 µM
[33] = second compound 10 µM, first compound 0.316 µM
[34] = second compound 10 µM, first compound 1 µM
[35] = second compound 10 µM, first compound 3.16 µM
[36] = second compound 10 µM, first compound 10 µM
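Note: spheroids exposed to agents for 7 days.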
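Throughout, for viability, T/C: 100% = DMSO vehicle wells.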

What does the source list for `CC(Nc1ccc2c(c1)OCCn1cc(N3C(=O)OCC3C(F)F)nc1-2)C(N)=O` (centres undefined) + CNC(=O)c1ccc(Nc2nc(OC3CCCC3)c3c(-c4ccc5nc(C)oc5c4)c[nH]c3n2)c(OC)c1?
IC50 (second compound 0.0316 µM): > 10000 nM; IC50 (second compound 0.1 µM): 3810 nM; IC50 (second compound 0.316 µM): < 31.6 nM; IC50 (second compound 1 µM): < 31.6 nM; IC50 (second compound 3.16 µM): < 31.6 nM; IC50 (second compound 10 µM): < 31.6 nM; viability, T/C [1]: 95.8%; viability, T/C [2]: 106%; viability, T/C [3]: 100%; viability, T/C [4]: 104%; viability, T/C [5]: 104%; viability, T/C [6]: 90.3%; viability, T/C [7]: 52.5%; viability, T/C [8]: 65.9%; viability, T/C [9]: 51.7%; viability, T/C [10]: 56.2%; viability, T/C [11]: 51.5%; viability, T/C [12]: 42.1%; viability, T/C [13]: 38.8%; viability, T/C [14]: 34.2%; viability, T/C [15]: 37.6%; viability, T/C [16]: 25.4%; viability, T/C [17]: 26.1%; viability, T/C [18]: 21.9%; viability, T/C [19]: 33%; viability, T/C [20]: 32.5%; viability, T/C [21]: 26.4%; viability, T/C [22]: 23.3%; viability, T/C [23]: 16.4%; viability, T/C [24]: 14.8%; viability, T/C [25]: 35.2%; viability, T/C [26]: 25.9%; viability, T/C [27]: 21.7%; viability, T/C [28]: 17.4%; viability, T/C [29]: 17%; viability, T/C [30]: 12.4%; viability, T/C [31]: 28%; viability, T/C [32]: 28.8%; viability, T/C [33]: 21.9%; viability, T/C [34]: 17.7%; viability, T/C [35]: 17%; viability, T/C [36]: 12.8%

Which IC50 (second compound 0.0316 µM) does the source give for `COc1cccc2c1C(=O)c1c(O)c3c(c(O)c1C2=O)CC(O)(C(=O)CO)CC3OC1CC(N)C(O)C(C)O1` (centres undefined) + CN1CCN(c2cc(C(=O)Nc3cc4cc(-c5cnn(C)c5)ccc4cn3)ccn2)CC1 here?
The IC50 was 211 nM.

What about the IC50 (second compound 0.1 µM) of the same compound?
Its IC50 is 142 nM.

And the IC50 (second compound 0.316 µM)?
The IC50 was < 31.6 nM.

And the IC50 (second compound 1 µM)?
The IC50 was < 31.6 nM.

What about the IC50 (second compound 3.16 µM) of the same compound?
The IC50 was < 31.6 nM.

What about the IC50 (second compound 10 µM) of the same compound?
Its IC50 is < 31.6 nM.

And the viability, T/C [1]?
Its viability, T/C is 82.5%.

What about the viability, T/C [2] of the same compound?
The viability, T/C was 42.5%.

And the viability, T/C [3]?
Its viability, T/C is 51.5%.

And the viability, T/C [4]?
Its viability, T/C is 41.8%.

And the viability, T/C [5]?
The viability, T/C was 0.43%.

And the viability, T/C [6]?
The viability, T/C was 0.14%.

What about the viability, T/C [7] of the same compound?
Its viability, T/C is 71%.

And the viability, T/C [8]?
Its viability, T/C is 44.8%.

And the viability, T/C [9]?
Its viability, T/C is 42.5%.

What about the viability, T/C [10] of the same compound?
The viability, T/C was 37.9%.

And the viability, T/C [11]?
Its viability, T/C is 0.52%.

And the viability, T/C [12]?
The viability, T/C was 0.13%.

And the viability, T/C [13]?
Its viability, T/C is 27.6%.

What about the viability, T/C [14] of the same compound?
Its viability, T/C is 32.9%.

And the viability, T/C [15]?
The viability, T/C was 21.8%.

And the viability, T/C [16]?
Its viability, T/C is 2.19%.

And the viability, T/C [17]?
The viability, T/C was 0.13%.

And the viability, T/C [18]?
The viability, T/C was 0.13%.

And the viability, T/C [19]?
The viability, T/C was 0.14%.

What about the viability, T/C [20] of the same compound?
The viability, T/C was 0.17%.

And the viability, T/C [21]?
Its viability, T/C is 0.16%.

What about the viability, T/C [22] of the same compound?
The viability, T/C was 0.1%.

And the viability, T/C [23]?
Its viability, T/C is 0.09%.

And the viability, T/C [24]?
The viability, T/C was 0.11%.

What about the viability, T/C [25] of the same compound?
The viability, T/C was 0.09%.

And the viability, T/C [26]?
The viability, T/C was 0.12%.

What about the viability, T/C [27] of the same compound?
The viability, T/C was 0.11%.

What about the viability, T/C [28] of the same compound?
Its viability, T/C is 0.09%.

What about the viability, T/C [29] of the same compound?
The viability, T/C was 0.12%.

And the viability, T/C [30]?
The viability, T/C was 0.71%.

What about the viability, T/C [31] of the same compound?
The viability, T/C was 0.1%.

What about the viability, T/C [32] of the same compound?
The viability, T/C was 0.12%.

What about the viability, T/C [33] of the same compound?
The viability, T/C was 0.46%.

What about the viability, T/C [34] of the same compound?
The viability, T/C was 0.13%.

What about the viability, T/C [35] of the same compound?
The viability, T/C was 0.16%.

And the viability, T/C [36]?
Its viability, T/C is 0.17%.
